Assay results: ChEMBL document CHEMBL1201862, “PubChem BioAssay data set” (2004)
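Compound exposure: 48 hours, 5 concentrations, 96-well plates. GI50 = concentration required for 50% inhibition of growth.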 Activity calls are given as the source filed them. Rule as the data show it: active = GI50 up to about 1.1 µM and inactive = higher.

Tests used:
Experiment in all cases: NCI anticancer screen, dose series, 48 h
UACC-62 = tested on: UACC-62
SNB-75 = tested on: SNB-75
SK-MEL-2 = tested on: SK-MEL-2
OVCAR-8 = tested on: OVCAR-8
A498 = tested on: A498
MOLT-4 = tested on: MOLT-4
HOP-92 = tested on: HOP-92
U-251 = tested on: U-251
LXFL 529 = tested on: LXFL 529
NCI-H522 = tested on: NCI-H522
LOX IMVI = tested on: LOX IMVI
A549 = tested on: A549
KM-20L2 = tested on: KM-20L2
NCI-H460 = tested on: NCI-H460
SF-268 = tested on: SF-268
DU-145 = tested on: DU-145
NCI/ADR-RES = tested on: NCI/ADR-RES
T47D = tested on: T47D
MDA-N = tested on: MDA-N
MCF7 = tested on: MCF7

Measured: GI50

CCOc1cccc2nc3cccc(C(=O)NCCN(C)C)c3nc12
active: OVCAR-8 0.891 µM | A498 0.74 µM | MOLT-4 0.333 µM | LOX IMVI 0.48 µM | A549 0.942 µM
inactive: UACC-62 1.47 µM | SNB-75 1.45 µM | SK-MEL-2 1.6 µM | HOP-92 1.39 µM | U-251 1.34 µM | LXFL 529 1.79 µM | NCI-H522 2.3 µM | KM-20L2 1.27 µM

CN(C)c1nc(N(C)c2ccccc2)[s+]s1
inactive: UACC-62 12.3 µM | SNB-75 83.2 µM | NCI-H460 16.7 µM | SK-MEL-2 > 100 µM | OVCAR-8 66.7 µM | A498 50.8 µM | HOP-92 > 100 µM | U-251 31.6 µM | LXFL 529 36.8 µM | NCI-H522 > 100 µM | A549 53.3 µM | KM-20L2 > 100 µM | SF-268 63.5 µM

CSc1ccc(OCC2OC2O)cc1 (stereo unspecified)
inactive: UACC-62 47.9 µM | SNB-75 > 65.6 µM | NCI-H460 29.4 µM | SK-MEL-2 > 77.1 µM | OVCAR-8 55.6 µM | A498 28.1 µM | MOLT-4 19.4 µM | HOP-92 > 58.2 µM | U-251 28.6 µM | LXFL 529 29 µM | NCI-H522 23.8 µM | LOX IMVI 16.9 µM | A549 42.3 µM | KM-20L2 46.2 µM

C(=N\OCc1ccccc1)/c1ncccc1C1OCCO1
inactive: UACC-62 > 100 µM | SNB-75 > 100 µM | NCI-H460 > 100 µM | SK-MEL-2 > 100 µM | OVCAR-8 > 100 µM | MOLT-4 > 100 µM | HOP-92 > 100 µM | U-251 > 100 µM | LXFL 529 > 100 µM | NCI-H522 > 100 µM | LOX IMVI > 100 µM | A549 > 100 µM | KM-20L2 > 100 µM | SF-268 > 100 µM

NC(=O)c1csc(C2OC(CO)C(O)C2O)n1 (stereo unspecified)
inactive: UACC-62 42.6 µM | DU-145 179 µM | NCI-H460 225 µM | SK-MEL-2 2340 µM | OVCAR-8 26.6 µM | A498 785 µM | MOLT-4 5.56 µM | NCI/ADR-RES 57 µM | HOP-92 115 µM | T47D 2790 µM | U-251 8.39 µM | MDA-N 35.1 µM | NCI-H522 50.1 µM | LOX IMVI 267 µM | A549 102 µM | KM-20L2 43.8 µM | SF-268 57.5 µM | MCF7 31.4 µM

c1ccc2c(c1)N=C(c1ccc3ccccc3c1)CC(c1cccc3ccccc13)S2 (stereo unspecified)
inactive: UACC-62 21 µM | SNB-75 56.5 µM | NCI-H460 29.6 µM | SK-MEL-2 > 100 µM | OVCAR-8 37.9 µM | A498 27.5 µM | MOLT-4 11.4 µM | U-251 60.1 µM | LXFL 529 24.2 µM | NCI-H522 24.3 µM | LOX IMVI 25.3 µM | A549 48 µM | KM-20L2 43.5 µM | SF-268 48.3 µM

CC1(C(=O)O)CCOc2ccccc21 (stereo unspecified)
inactive: UACC-62 > 100 µM | SNB-75 > 100 µM | NCI-H460 > 100 µM | OVCAR-8 > 100 µM | A498 > 100 µM | MOLT-4 > 100 µM | HOP-92 > 100 µM | LXFL 529 > 100 µM | LOX IMVI > 100 µM | A549 > 100 µM | KM-20L2 > 100 µM | SF-268 > 100 µM

CC1CC2OC(=O)C3CC(O)CC(=C23)[C@@]12C[C@@H](c1ccoc1)OC2=O (stereo partly specified)
inactive: UACC-62 > 100 µM | SNB-75 > 100 µM | NCI-H460 > 100 µM | SK-MEL-2 > 100 µM | OVCAR-8 > 100 µM | MOLT-4 > 100 µM | HOP-92 > 100 µM | U-251 > 100 µM | LXFL 529 > 100 µM | NCI-H522 > 100 µM | LOX IMVI > 100 µM | A549 > 100 µM | KM-20L2 > 100 µM | SF-268 > 100 µM

CC(=O)OCCOCNC(=S)N/N=C/c1ccc2ccccc2n1
inactive: UACC-62 21.8 µM | SNB-75 51.3 µM | NCI-H460 27.5 µM | SK-MEL-2 > 100 µM | OVCAR-8 37.1 µM | A498 > 100 µM | MOLT-4 > 100 µM | U-251 29.2 µM | LXFL 529 33.3 µM | NCI-H522 14.1 µM | LOX IMVI 43 µM | A549 33 µM | KM-20L2 19.5 µM | SF-268 34.9 µM

COc1ccc(NC(=O)C2C(=O)N(c3ccc(OC)cc3)C(=O)/C2=N\N)cc1 (stereo unspecified)
inactive: UACC-62 > 100 µM | NCI-H460 > 100 µM | SK-MEL-2 > 100 µM | OVCAR-8 > 100 µM | A498 > 100 µM | MOLT-4 > 100 µM | HOP-92 > 100 µM | U-251 > 100 µM | LXFL 529 > 100 µM | NCI-H522 > 100 µM | A549 > 100 µM | KM-20L2 > 100 µM | SF-268 > 100 µM

OCC1OC(c2nc(C3=NCCCN3)cs2)C(O)C1O (stereo unspecified)
inactive: UACC-62 > 100 µM | NCI-H460 > 100 µM | SK-MEL-2 > 100 µM | OVCAR-8 > 100 µM | A498 > 100 µM | MOLT-4 > 100 µM | HOP-92 > 100 µM | U-251 > 100 µM | LXFL 529 > 100 µM | NCI-H522 > 100 µM | LOX IMVI > 100 µM | A549 > 100 µM | KM-20L2 > 100 µM | SF-268 > 100 µM

CC(C)N(C(=O)C12C3C4C5(C#N)C3C1(C#N)C5C42C#N)C(C)C (stereo unspecified)
inactive: UACC-62 > 100 µM | SNB-75 > 100 µM | NCI-H460 > 100 µM | SK-MEL-2 > 100 µM | OVCAR-8 > 100 µM | A498 > 100 µM | MOLT-4 > 100 µM | U-251 > 100 µM | LXFL 529 > 100 µM | NCI-H522 > 100 µM | LOX IMVI > 100 µM | A549 > 100 µM | KM-20L2 > 100 µM | SF-268 > 100 µM

C=CCCC12CCCC(=O)C1Sc1ccc3ccccc3c12 (stereo unspecified)
inactive: UACC-62 11.9 µM | SNB-75 22.8 µM | SK-MEL-2 13.4 µM | OVCAR-8 32.1 µM | A498 13.1 µM | MOLT-4 13.2 µM | U-251 16.6 µM | LXFL 529 15.2 µM | NCI-H522 15 µM | LOX IMVI 13.6 µM | A549 10.2 µM | SF-268 31.3 µM

Cc1c(Cl)cccc1NC(=O)CC1C(=O)Nc2ccccc2S1(=O)=O (stereo unspecified)
inactive: UACC-62 7.52 µM | SNB-75 17.2 µM | NCI-H460 14.7 µM | SK-MEL-2 19.4 µM | OVCAR-8 18.4 µM | A498 15.3 µM | MOLT-4 7.83 µM | HOP-92 15.7 µM | U-251 13.1 µM | LXFL 529 15.3 µM | LOX IMVI 14.6 µM | A549 18.2 µM | KM-20L2 22.4 µM | SF-268 19.6 µM

C[P+]1(c2ccccc2)CCCCC1
inactive: UACC-62 > 100 µM | SNB-75 > 100 µM | NCI-H460 > 100 µM | SK-MEL-2 > 100 µM | OVCAR-8 > 100 µM | A498 > 100 µM | MOLT-4 > 100 µM | U-251 > 100 µM | LXFL 529 > 100 µM | LOX IMVI > 100 µM | A549 > 100 µM | KM-20L2 > 100 µM | SF-268 > 100 µM
